Measurements reported in ChEMBL document CHEMBL1177814, “Antitumor agents 278. 4-Amino-2H-benzo[h]chromen-2-one (ABO) analogs as potent in vitro anti-cancer agents” (2010).

Tests used:
Format in all cases: functional
SK-BR-3 = assay: Cytotoxicity against human SK-BR-3 cells after 72 hrs by SRB assay; settings: SK-BR-3, 72 h, read-out: ED50 (the source's name)
ZR-75-1 = assay: Cytotoxicity against human ZR-75-1 cells after 72 hrs by SRB assay; settings: ZR-75-1, 72 h, read-out: ED50 (the source's name)
DU-145 = assay: Cytotoxicity against human DU145 cells after 72 hrs by SRB assay; settings: DU-145, 72 h, read-out: ED50 (the source's name)
A549 = assay: Cytotoxicity against human A549 cells after 72 hrs by SRB assay; settings: A549, 72 h, read-out: ED50 (the source's name)
[1] = Cytotoxicity against human KBVIN cells after 72 hrs by SRB assay; settings: read-out: ED50 (the source's name)
MDA-MB-231 = assay: Cytotoxicity against human MDA-MB-231 cells after 72 hrs by SRB assay; settings: MDA-MB-231, 72 h, read-out: ED50 (the source's name)
KB = assay: Cytotoxicity against human KB cells after 72 hrs by SRB assay; settings: read-out: ED50 (the source's name)

SMILES | EC50 (SK-BR-3) | EC50 (ZR-75-1) | EC50 (DU-145) | EC50 (A549) | EC50 [1] | EC50 (MDA-MB-231) | EC50 (KB)
COc1cccc(Nc2cc(=O)oc3c2ccc2ccccc23)c1 | 300 nM | 500 nM | 270 nM | 290 nM | 170 nM | 1300 nM | 220 nM
Cc1ccc(Nc2cc(=O)oc3c2ccc2ccccc23)cc1 | 380 nM | 13000 nM | 370 nM | 250 nM | 170 nM | 15300 nM | 220 nM
CCc1cccc2c1ccc1c(NCC(=O)N(C)OC)cc(=O)oc12 | 17400 nM | 18200 nM | 16200 nM | 17600 nM | 19700 nM | > 30000 nM | 21500 nM
O=c1cc(Nc2cccc(Br)c2)c2ccc3ccccc3c2o1 | > 30000 nM | > 30000 nM | > 30000 nM | > 30000 nM | > 30000 nM | > 30000 nM | > 30000 nM
O=c1cc(NC2CCCCC2)c2ccc3ccccc3c2o1 | 1300 nM | 5800 nM | 970 nM | 720 nM | 430 nM | 4100 nM | 610 nM
O=c1cc(NC2CC2)c2ccc3ccccc3c2o1 | 20800 nM | 19500 nM | 9600 nM | 29800 nM | 9900 nM | 10000 nM | 7800 nM
CCc1ccc(Nc2cc(=O)oc3c2ccc2ccccc23)cc1 | 300 nM | 790 nM | 300 nM | 200 nM | 180 nM | 1400 nM | 280 nM
COC(=O)CNc1cc(=O)oc2c1ccc1ccccc12 | 3800 nM | 6700 nM | 4100 nM | 4700 nM | 3100 nM | 4200 nM | 4600 nM
O=c1cc(Nc2ccc(Br)cc2)c2ccc3ccccc3c2o1 | 500 nM | 3100 nM | 520 nM | 720 nM | 470 nM | 6800 nM | 410 nM
Cc1cccc2c1ccc1c3occ(C)c3c(=O)oc21 | 950 nM | 950 nM | > 30000 nM | > 30000 nM | > 30000 nM | > 30000 nM | > 30000 nM
COc1ccccc1Nc1cc(=O)oc2c1ccc1ccccc12 | 640 nM | 4700 nM | 760 nM | 600 nM | 470 nM | 7300 nM | 500 nM
CON(C)C(=O)CNc1cc(=O)oc2c1ccc1ccccc12 | 4500 nM | 480 nM | 3200 nM | 3100 nM | 3000 nM | 5800 nM | 2200 nM
O=c1cc(Nc2cccc3ccccc23)c2ccc3ccccc3c2o1 | 320 nM | 530 nM | 300 nM | 250 nM | 200 nM | 470 nM | 270 nM
Cc1cccc(Nc2cc(=O)oc3c2ccc2ccccc23)c1 | 150 nM | 80 nM | 140 nM | 150 nM | 140 nM | 760 nM | 140 nM
O=c1cc(Nc2ccccc2)c2ccc3ccccc3c2o1 | 1600 nM | 910 nM | 820 nM | 980 nM | 500 nM | 270 nM | 440 nM
CCCN(CCC)c1cc(=O)oc2c1ccc1ccccc12 | > 30000 nM | > 30000 nM | > 30000 nM | > 30000 nM | 20800 nM | 30000 nM | > 30000 nM
CCCNc1cc(=O)oc2c1ccc1ccccc12 | > 30000 nM | > 30000 nM | > 30000 nM | > 30000 nM | 10600 nM | 19800 nM | > 30000 nM
O=c1cc(Nc2ccccc2Br)c2ccc3ccccc3c2o1 | 260 nM | 380 nM | 230 nM | 190 nM | 150 nM | 2600 nM | 160 nM
Cc1ccccc1Nc1cc(=O)oc2c1ccc1ccccc12 | 1600 nM | 4300 nM | 1300 nM | 1300 nM | 840 nM | 8300 nM | 2100 nM
O=c1cc(Nc2ccc(F)cc2)c2ccc3ccccc3c2o1 | 1100 nM | 3200 nM | 780 nM | 810 nM | 510 nM | > 30000 nM | 1200 nM
CNc1cc(=O)oc2c1ccc1ccccc12 | > 30000 nM | > 30000 nM | > 30000 nM | > 30000 nM | > 30000 nM | > 30000 nM | > 30000 nM
O=c1cc(N2CCOCC2)c2ccc3ccccc3c2o1 | > 30000 nM | 3900 nM | > 30000 nM | > 30000 nM | > 30000 nM | > 30000 nM | > 30000 nM
O=c1cc(N2CCCCC2)c2ccc3ccccc3c2o1 | > 30000 nM | > 30000 nM | > 30000 nM | > 30000 nM | 10900 nM | 30000 nM | > 30000 nM
COc1ccc(Nc2cc(=O)oc3c2ccc2ccccc23)cc1 | 130 nM | 10 nM | 110 nM | 170 nM | 130 nM | 20 nM | 110 nM
